Format: physicochemical
From the text: U.S. Pat. No. 5,783,203 mentions acetone as a solvent for imidacloprid. […] Using a 6 wt % imidacloprid in acetone would mean applying 1.67 wt % of the solution on the fertilizer based on the combined weight of the fertilizer and the solution to achieve a product with 0.10 wt % imidacloprid. This would be very difficult to achieve a dry product. Fertilizer products with 0.2 wt % and 0.5 wt % imidacloprid would require 3.33 wt % and 8.33 wt % respectively of the imidacloprid solution absorbed onto the fertilizer; concentrations which are not likely feasible in acetone. In addition, acetone is volatile and highly flammable which would make processing very difficult and expensive.

O=[N+]([O-])NC1=NCCN1Cc1ccc(Cl)nc1 [imidacloprid]
solubility: less than 7 wt %

Reference: patent US20080171659A1, “Insecticidally Coated Fertilizer Solids” (priority 2007, published 2008)
